In patent US9012443B2 (Amgen Inc., priority 2011, dated 2015):
Read-outs that look alike come from different tables or passages of the source.

Experiments:
Nav 1.7 = Nav 1.7 (Homo sapiens (Human), UniProt Q15858); assay: Nav 1.7 in vitro PX assay (PatchXpress whole cell voltage clamp); format: cell-based; conditions: 293 cells, human Nav1.7, partially inactivated state; read-out: Nav1.7 PX IC50 IP
Outline: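 Partially inactivated channel state (holding potential for 20–50% inactivation) probed in human Nav1.7-transfected 293 cells by automated patch clamp, test pulse −10 mV for 20 msec.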

Nav 1.5 = Nav 1.5 (Homo sapiens (Human), UniProt Q14524); assay: Nav 1.5 in vitro PX assay (PatchXpress whole cell voltage clamp); format: cell-based
Sequence of Nav 1.5 (Q14524 whole entry): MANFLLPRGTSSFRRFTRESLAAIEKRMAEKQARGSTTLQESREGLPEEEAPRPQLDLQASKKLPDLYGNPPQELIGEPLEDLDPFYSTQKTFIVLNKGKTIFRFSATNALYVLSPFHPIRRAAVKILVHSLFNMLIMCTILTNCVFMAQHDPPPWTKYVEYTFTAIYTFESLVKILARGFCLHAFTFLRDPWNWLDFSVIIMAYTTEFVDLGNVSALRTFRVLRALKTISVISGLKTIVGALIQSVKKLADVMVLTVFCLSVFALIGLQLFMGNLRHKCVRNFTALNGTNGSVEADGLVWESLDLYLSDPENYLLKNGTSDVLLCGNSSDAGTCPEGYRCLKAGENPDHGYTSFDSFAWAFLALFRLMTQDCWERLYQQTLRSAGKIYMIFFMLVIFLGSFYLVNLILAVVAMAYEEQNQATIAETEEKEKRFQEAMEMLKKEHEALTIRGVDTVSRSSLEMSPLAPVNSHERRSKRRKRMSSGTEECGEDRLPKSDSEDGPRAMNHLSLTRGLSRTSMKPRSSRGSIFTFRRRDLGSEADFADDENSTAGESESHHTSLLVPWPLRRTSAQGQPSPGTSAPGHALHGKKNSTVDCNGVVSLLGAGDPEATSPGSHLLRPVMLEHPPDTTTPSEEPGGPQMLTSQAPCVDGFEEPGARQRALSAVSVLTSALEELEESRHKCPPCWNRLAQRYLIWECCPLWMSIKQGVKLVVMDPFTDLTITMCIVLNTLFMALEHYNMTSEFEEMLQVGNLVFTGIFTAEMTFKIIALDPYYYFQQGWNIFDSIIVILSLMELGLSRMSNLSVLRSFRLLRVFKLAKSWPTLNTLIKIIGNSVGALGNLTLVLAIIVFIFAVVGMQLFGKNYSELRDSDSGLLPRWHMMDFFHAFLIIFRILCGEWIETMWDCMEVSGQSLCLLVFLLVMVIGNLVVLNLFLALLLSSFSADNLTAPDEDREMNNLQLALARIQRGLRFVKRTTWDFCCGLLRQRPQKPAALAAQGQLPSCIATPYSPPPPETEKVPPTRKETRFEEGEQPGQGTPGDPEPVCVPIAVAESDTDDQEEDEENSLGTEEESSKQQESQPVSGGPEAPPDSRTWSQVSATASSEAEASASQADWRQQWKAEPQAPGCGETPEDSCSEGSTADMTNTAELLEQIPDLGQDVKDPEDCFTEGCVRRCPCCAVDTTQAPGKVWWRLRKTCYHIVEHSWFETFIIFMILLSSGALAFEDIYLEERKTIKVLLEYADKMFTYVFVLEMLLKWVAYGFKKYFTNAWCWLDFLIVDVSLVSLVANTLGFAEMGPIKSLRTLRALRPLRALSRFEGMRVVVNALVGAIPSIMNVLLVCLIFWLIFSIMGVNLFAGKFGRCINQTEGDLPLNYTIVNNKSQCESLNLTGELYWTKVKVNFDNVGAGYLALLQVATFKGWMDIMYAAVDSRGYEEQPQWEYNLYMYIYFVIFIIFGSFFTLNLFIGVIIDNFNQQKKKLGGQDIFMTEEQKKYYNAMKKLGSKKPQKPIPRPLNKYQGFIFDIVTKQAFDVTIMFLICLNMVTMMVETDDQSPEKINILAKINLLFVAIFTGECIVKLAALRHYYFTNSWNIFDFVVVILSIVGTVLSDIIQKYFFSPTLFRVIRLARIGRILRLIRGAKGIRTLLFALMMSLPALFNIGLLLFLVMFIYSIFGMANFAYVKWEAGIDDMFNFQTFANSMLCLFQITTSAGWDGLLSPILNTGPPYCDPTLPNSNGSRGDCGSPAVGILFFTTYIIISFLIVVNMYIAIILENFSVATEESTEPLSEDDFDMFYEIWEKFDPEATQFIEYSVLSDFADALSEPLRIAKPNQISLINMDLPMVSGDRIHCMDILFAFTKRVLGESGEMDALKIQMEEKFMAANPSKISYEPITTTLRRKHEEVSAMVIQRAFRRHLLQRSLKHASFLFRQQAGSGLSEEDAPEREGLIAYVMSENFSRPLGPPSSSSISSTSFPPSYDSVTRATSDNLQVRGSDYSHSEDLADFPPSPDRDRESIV
Outline: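 HEK293 cells stably expressing Nav 1.5, whole-cell voltage clamp held at −50 mV; 20 msec test pulses to 0 mV at 0.1 Hz, each preceded by a step to −120 mV.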

[1] = 293 cells stably transfected with Nav 1.5, second part of table, read-out: Nav1.5 PX IC50

Sequence of Nav 1.7 (Q15858 whole entry): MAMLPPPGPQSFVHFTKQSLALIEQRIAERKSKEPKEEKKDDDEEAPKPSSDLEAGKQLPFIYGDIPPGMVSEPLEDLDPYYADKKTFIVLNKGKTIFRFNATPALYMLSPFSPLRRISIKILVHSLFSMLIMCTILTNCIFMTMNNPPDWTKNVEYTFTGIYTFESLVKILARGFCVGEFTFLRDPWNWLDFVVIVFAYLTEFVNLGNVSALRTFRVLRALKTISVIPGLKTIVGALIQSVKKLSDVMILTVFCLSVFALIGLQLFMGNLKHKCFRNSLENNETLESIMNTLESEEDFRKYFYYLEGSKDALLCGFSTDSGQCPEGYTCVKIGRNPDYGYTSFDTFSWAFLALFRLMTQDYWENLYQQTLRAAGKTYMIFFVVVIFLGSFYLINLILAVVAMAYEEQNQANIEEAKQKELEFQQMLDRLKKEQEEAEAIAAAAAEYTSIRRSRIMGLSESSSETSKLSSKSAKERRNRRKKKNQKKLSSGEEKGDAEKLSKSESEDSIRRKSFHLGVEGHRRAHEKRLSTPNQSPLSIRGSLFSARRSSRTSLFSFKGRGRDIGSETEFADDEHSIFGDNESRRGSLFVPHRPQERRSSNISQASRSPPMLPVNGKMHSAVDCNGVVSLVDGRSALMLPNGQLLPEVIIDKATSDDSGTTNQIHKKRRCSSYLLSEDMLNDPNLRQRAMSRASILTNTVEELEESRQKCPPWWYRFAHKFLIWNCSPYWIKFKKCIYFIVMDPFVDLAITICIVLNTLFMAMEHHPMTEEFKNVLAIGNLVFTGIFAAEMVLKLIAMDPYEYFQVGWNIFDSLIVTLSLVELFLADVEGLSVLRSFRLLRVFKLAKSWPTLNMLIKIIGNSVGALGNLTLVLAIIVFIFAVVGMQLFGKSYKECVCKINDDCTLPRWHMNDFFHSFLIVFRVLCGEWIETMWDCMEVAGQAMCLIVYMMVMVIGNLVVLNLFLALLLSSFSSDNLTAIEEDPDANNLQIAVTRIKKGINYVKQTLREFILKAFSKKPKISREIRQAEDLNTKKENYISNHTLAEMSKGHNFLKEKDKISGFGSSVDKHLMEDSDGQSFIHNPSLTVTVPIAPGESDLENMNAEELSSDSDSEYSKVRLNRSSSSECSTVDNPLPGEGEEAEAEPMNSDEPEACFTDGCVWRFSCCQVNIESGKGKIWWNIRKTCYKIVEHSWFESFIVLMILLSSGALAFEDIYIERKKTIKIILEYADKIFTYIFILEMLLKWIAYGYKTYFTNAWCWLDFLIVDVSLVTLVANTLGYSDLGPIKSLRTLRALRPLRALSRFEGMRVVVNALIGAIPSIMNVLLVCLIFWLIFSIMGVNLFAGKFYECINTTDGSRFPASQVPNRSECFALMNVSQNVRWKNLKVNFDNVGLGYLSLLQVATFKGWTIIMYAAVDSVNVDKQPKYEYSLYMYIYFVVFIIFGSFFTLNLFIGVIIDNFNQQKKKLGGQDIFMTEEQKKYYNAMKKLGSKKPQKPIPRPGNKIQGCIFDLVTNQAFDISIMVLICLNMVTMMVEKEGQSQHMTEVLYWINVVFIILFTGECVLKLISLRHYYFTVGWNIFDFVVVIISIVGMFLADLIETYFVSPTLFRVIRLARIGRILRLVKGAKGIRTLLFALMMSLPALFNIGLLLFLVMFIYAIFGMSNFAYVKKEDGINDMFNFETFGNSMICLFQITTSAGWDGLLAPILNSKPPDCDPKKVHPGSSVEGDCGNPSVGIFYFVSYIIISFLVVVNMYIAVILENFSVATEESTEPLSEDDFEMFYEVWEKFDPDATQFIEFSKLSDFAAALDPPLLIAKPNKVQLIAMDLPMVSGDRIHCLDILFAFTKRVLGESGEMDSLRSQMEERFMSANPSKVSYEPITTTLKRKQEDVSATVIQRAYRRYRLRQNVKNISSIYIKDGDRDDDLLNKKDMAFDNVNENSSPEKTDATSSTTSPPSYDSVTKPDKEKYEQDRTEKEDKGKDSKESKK

IC50 (Nav 1.7) [nM] | SMILES | IC50 (Nav 1.5; [1]) [nM] | IC50 (Nav 1.5) [nM]
152 | COc1cc(-c2cc(F)ccc2F)ccc1-c1nccc2cc(S(=O)(=O)Nc3ccncn3)ccc12 [Example 446, 1-(2′,5′-DIFLUORO-3-METHOXY-[1,1′-BIPHENYL]-4-YL)-N-(PYRIMIDIN-4-YL)ISOQUINOLINE-6-SULFONAMIDE] | > 30000 | –
237 | COc1cc(-c2c(F)cccc2F)ccc1-c1nccc2cc(S(=O)(=O)Nc3ccncn3)ccc12 [Example 447, 1-(2′,6′-DIFLUORO-3-METHOXY-[1,1′-BIPHENYL]-4-YL)-N-(PYRIMIDIN-4-YL)ISOQUINOLINE-6-SULFONAMIDE] | > 30000 | –
38 | COc1cc(-c2ccc(F)c(F)c2)ccc1-c1nccc2cc(S(=O)(=O)Nc3ccncn3)ccc12 [Example 448, 1-(3′,4′-DIFLUORO-3-METHOXY-[1,1′-BIPHENYL]-4-YL)-N-(PYRIMIDIN-4-YL)ISOQUINOLINE-6-SULFONAMIDE] | > 30000 | –
34 | COc1cc(-c2cc(F)cc(F)c2)ccc1-c1nccc2cc(S(=O)(=O)Nc3ccncn3)ccc12 [Example 449, 1-(3′,5′-DIFLUORO-3-METHOXY-[1,1′-BIPHENYL]-4-YL)-N-(PYRIMIDIN-4-YL)ISOQUINOLINE-6-SULFONAMIDE] | > 30000 | –
284 | COc1cc(C(F)F)c(OC)cc1-c1nccc2cc(S(=O)(=O)Nc3nccs3)ccc12 [Example 452, 1-(4-(DIFLUOROMETHYL)-2,5-DIMETHOXYPHENYL)-N-(THIAZOL-2-YL)ISOQUINOLINE-6-SULFONAMIDE] | > 30000 | –
532 | COc1cc(C(F)F)c(C2CC2)cc1-c1nccc2cc(S(=O)(=O)Nc3ccncn3)ccc12 [Example 459, 1-(5-CYCLOPROPYL-4-(DIFLUOROMETHYL)-2-METHOXYPHENYL)-N-(PYRIMIDIN-4-YL)ISOQUINOLINE-6-SULFONAMIDE] | > 30000 | –
106 | COc1cc(Cl)ccc1-c1ccc(-c2nccc3cc(S(=O)(=O)Nc4ccncn4)ccc23)c(OC)c1 [Example 460, 1-(4′-CHLORO-2′,3-DIMETHOXY-[1,1′-BIPHENYL]-4-YL)-N-(PYRIMIDIN-4-YL)ISOQUINOLINE-6-SULFONAMIDE] | > 30000 | –
203 | COc1cc(Oc2ccc(F)cc2)ccc1-c1nccc2cc(S(=O)(=O)Nc3ccncn3)ccc12 [Example 462, 1-(4-(4-FLUOROPHENOXY)-2-METHOXYPHENYL)-N-(PYRIMIDIN-4-YL)ISOQUINOLINE-6-SULFONAMIDE] | > 30000 | –
380 | COc1cc(Oc2cccc(F)c2)ccc1-c1nccc2cc(S(=O)(=O)Nc3ccncn3)ccc12 [Example 464, 1-(4-(3-FLUOROPHENOXY)-2-METHOXYPHENYL)-N-(PYRIMIDIN-4-YL)ISOQUINOLINE-6-SULFONAMIDE] | > 30000 | –
227 | COc1ccccc1-c1ccc(-c2nccc3cc(S(=O)(=O)Nc4ccncn4)ccc23)c(OC)c1 [Example 466, 1-(2′,3-DIMETHOXY-[1,1′-BIPHENYL]-4-YL)-N-(PYRIMIDIN-4-YL)ISOQUINOLINE-6-SULFONAMIDE] | > 30000 | –
204 | COc1cccc(-c2ccc(-c3nccc4cc(S(=O)(=O)Nc5ccncn5)ccc34)c(OC)c2)c1 [Example 467, 1-(3,3′-DIMETHOXY-[1,1′-BIPHENYL]-4-YL)-N-(PYRIMIDIN-4-YL)ISOQUINOLINE-6-SULFONAMIDE] | > 30000 | –
359 | COc1ccc(-c2ccc(-c3nccc4cc(S(=O)(=O)Nc5ccncn5)ccc34)c(OC)c2)cc1 [Example 468, 1-(3,4′-DIMETHOXY-[1,1′-BIPHENYL]-4-YL)-N-(PYRIMIDIN-4-YL)ISOQUINOLINE-6-SULFONAMIDE] | > 30000 | –
170 | COc1cc(-c2ccc(C)c(C)c2)ccc1-c1nccc2cc(S(=O)(=O)Nc3ccncn3)ccc12 [Example 469] | > 30000 | –
180 | COc1cc(-c2cc(C)cc(C)c2)ccc1-c1nccc2cc(S(=O)(=O)Nc3ccncn3)ccc12 [Example 470] | > 30000 | –
56 | COc1cc(-c2ccc(C)c(F)c2)ccc1-c1nccc2cc(S(=O)(=O)Nc3ccncn3)ccc12 [Example 471, 1-(3′-FLUORO-3-METHOXY-4′-METHYL-[1,1′-BIPHENYL]-4-YL)-N-(PYRIMIDIN-4-YL)ISOQUINOLINE-6-SULFONAMIDE] | > 30000 | –
63 | COc1cc(-c2cc(C)cc(F)c2)ccc1-c1nccc2cc(S(=O)(=O)Nc3ccncn3)ccc12 [Example 472, 1-(3′-FLUORO-3-METHOXY-5′-METHYL-[1,1′-BIPHENYL]-4-YL)-N-(PYRIMIDIN-4-YL)ISOQUINOLINE-6-SULFONAMIDE] | > 30000 | –
177 | COc1cc(-c2ccc(-c3nccc4cc(S(=O)(=O)Nc5ccncn5)ccc34)c(OC)c2)ccc1F [Example 484, 1-(4′-FLUORO-3,3′-DIMETHOXY-[1,1′-BIPHENYL]-4-YL)-N-(PYRIMIDIN-4-YL)ISOQUINOLINE-6-SULFONAMIDE] | > 30000 | –
128 | COc1cc(F)cc(-c2ccc(-c3nccc4cc(S(=O)(=O)Nc5ccncn5)ccc34)c(OC)c2)c1 [Example 485, 1-(3′-FLUORO-3,5′-DIMETHOXY-[1,1′-BIPHENYL]-4-YL)-N-(PYRIMIDIN-4-YL)ISOQUINOLINE-6-SULFONAMIDE] | > 30000 | –
338 | COc1cc(-c2ccc(F)c(C#N)c2)ccc1-c1nccc2cc(S(=O)(=O)Nc3ccncn3)ccc12 [Example 486, 1-(3′-CYANO-4′-FLUORO-3-METHOXY-[1,1′-BIPHENYL]-4-YL)-N-(PYRIMIDIN-4-YL)ISOQUINOLINE-6-SULFONAMIDE] | > 30000 | –
287 | COc1cc(-c2cc(F)cc(C#N)c2)ccc1-c1nccc2cc(S(=O)(=O)Nc3ccncn3)ccc12 [Example 487, 1-(3′-CYANO-5′-FLUORO-3-METHOXY-[1,1′-BIPHENYL]-4-YL)-N-(PYRIMIDIN-4-YL)ISOQUINOLINE-6-SULFONAMIDE] | > 30000 | –
99 | COc1cc(-c2ccc(F)c(C)c2)ccc1-c1nccc2cc(S(=O)(=O)Nc3ccncn3)ccc12 [Example 488, 1-(4′-FLUORO-3-METHOXY-3′-METHYL-[1,1′-BIPHENYL]-4-YL)-N-(PYRIMIDIN-4-YL)ISOQUINOLINE-6-SULFONAMIDE] | > 30000 | –
62 | COc1cc(-c2ccc(F)c(Cl)c2)ccc1-c1nccc2cc(S(=O)(=O)Nc3ccncn3)ccc12 [Example 490, 1-(3′-CHLORO-4′-FLUORO-3-METHOXY-[1,1′-BIPHENYL]-4-YL)-N-(PYRIMIDIN-4-YL)ISOQUINOLINE-6-SULFONAMIDE] | > 30000 | –
101 | COc1cc(-c2cc(F)cc(Cl)c2)ccc1-c1nccc2cc(S(=O)(=O)Nc3ccncn3)ccc12 [Example 491, 1-(3′-CHLORO-5′-FLUORO-3-METHOXY-[1,1′-BIPHENYL]-4-YL)-N-(PYRIMIDIN-4-YL)ISOQUINOLINE-6-SULFONAMIDE] | > 30000 | –
69 | COc1cc(-c2ccc(Cl)c(F)c2)ccc1-c1nccc2cc(S(=O)(=O)Nc3ccncn3)ccc12 [Example 492, 1-(4′-CHLORO-3′-FLUORO-3-METHOXY-[1,1′-BIPHENYL]-4-YL)-N-(PYRIMIDIN-4-YL)ISOQUINOLINE-6-SULFONAMIDE] | > 30000 | –
86 | COc1cc(-c2ccc(Cl)c(C)c2)ccc1-c1nccc2cc(S(=O)(=O)Nc3ccncn3)ccc12 [Example 493, 1-(4′-CHLORO-3-METHOXY-3′-METHYL-[1,1′-BIPHENYL]-4-YL)-N-(PYRIMIDIN-4-YL)ISOQUINOLINE-6-SULFONAMIDE] | > 30000 | –
78 | COc1cc(-c2ccc(C)c(Cl)c2)ccc1-c1nccc2cc(S(=O)(=O)Nc3ccncn3)ccc12 [Example 494, 1-(3′-CHLORO-3-METHOXY-4′-METHYL-[1,1′-BIPHENYL]-4-YL)-N-(PYRIMIDIN-4-YL)ISOQUINOLINE-6-SULFONAMIDE] | > 30000 | –
95 | COc1cc(-c2cc(C)cc(Cl)c2)ccc1-c1nccc2cc(S(=O)(=O)Nc3ccncn3)ccc12 [Example 495, 1-(3′-CHLORO-3-METHOXY-5′-METHYL-[1,1′-BIPHENYL]-4-YL)-N-(PYRIMIDIN-4-YL)ISOQUINOLINE-6-SULFONAMIDE] | 19100 | –
786 | COc1cc(C(F)(F)F)ccc1-c1nccc2cc(S(=O)(=O)Nc3cscn3)ccc12 [Example 497, 1-(2-METHOXY-4-(TRIFLUOROMETHYL)PHENYL)-N-(THIAZOL-4-YL)ISOQUINOLINE-6-SULFONAMIDE] | > 30000 | –
258 | COc1ccc(Cl)cc1-c1n[nH]c(=O)c2cc(S(=O)(=O)Nc3ncns3)ccc12 [Example 505, 1-(5-CHLORO-2-METHOXYPHENYL)-4-OXO-N-(1,2,4-THIADIAZOL-5-YL)-3,4-DIHYDROPHTHALAZINE-6-SULFONAMIDE] | > 30000 | –
177 | COc1ccc(Cl)cc1-c1n[nH]c(=O)c2cc(S(=O)(=O)Nc3ncc(F)s3)ccc12 [Example 507, 1-(5-CHLORO-2-METHOXYPHENYL)-N-(5-FLUOROTHIAZOL-2-YL)-4-OXO-3,4-DIHYDROPHTHALAZINE-6-SULFONAMIDE] | > 30000 | –

SMILES | IC50 (Nav 1.7) [nM] | IC50 (Nav 1.5; [1]) [nM] | IC50 (Nav 1.5) [nM]
COc1nc(-c2cccc(F)c2)c(Cl)cc1-c1nccc2cc(S(=O)(=O)Nc3nncs3)ccc12 [Example 498, 1-(5-CHLORO-6-(3-FLUOROPHENYL)-2-METHOXYPYRIDIN-3-YL)-N-(1,3,4-THIADIAZOL-2-YL)ISOQUINOLINE-6-SULFONAMIDE] | 760 | > 30000 | –
COc1ccc(Cl)cc1-c1n[nH]c(=O)c2cc(S(=O)(=O)Nc3nccs3)ccc12 [Example 501, 1-(5-CHLORO-2-METHOXYPHENYL)-4-OXO-N-(THIAZOL-2-YL)-3,4-DIHYDROPHTHALAZINE-6-SULFONAMIDE] | 124 | – | > 30000
